The results in this text go back to ChEMBL document CHEMBL2029331, “Red fluorescent scaffold for highly sensitive protease activity probes” (Bioorg Med Chem Lett, 2012).

Assay [1] deals with Leucyl-cystinyl aminopeptidase (Homo sapiens) (UniProt Q9UIQ6). Nature of the assay: Activity of leucine aminopeptidase after 2.5 hrs by spectrophotometry.
Assay [2] deals with T1, Caspase-3 (Homo sapiens) (UniProt P42574).
T1 sequence (whole entry): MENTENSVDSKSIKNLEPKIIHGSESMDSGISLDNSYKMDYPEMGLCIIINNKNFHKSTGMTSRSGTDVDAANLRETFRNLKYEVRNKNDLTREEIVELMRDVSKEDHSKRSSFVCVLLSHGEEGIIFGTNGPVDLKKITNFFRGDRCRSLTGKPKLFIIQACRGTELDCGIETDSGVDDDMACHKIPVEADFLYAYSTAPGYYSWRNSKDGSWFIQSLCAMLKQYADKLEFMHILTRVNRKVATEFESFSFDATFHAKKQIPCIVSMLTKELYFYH
The assay is described as follows: Activity of caspase3 assessed as SiR600 release by measuring increase in fluorescence intensity at 2 uM after 10 hrs by FRET assay relative to control.

In assay [3] the target is T1, Caspase-3 (Homo sapiens). Nature of the assay: Activity of caspase3 assessed as Kcat/Km ratio after 10 hrs by spectrophotometry relative to Ac-DEVD-AMC.

SMILES strings stand for the structures. Calls of active or inactive are those of the source. The rule behind the calls is not given here.

Leucyl-cystinyl aminopeptidase (Homo sapiens), sequence (Q9UIQ6 whole entry): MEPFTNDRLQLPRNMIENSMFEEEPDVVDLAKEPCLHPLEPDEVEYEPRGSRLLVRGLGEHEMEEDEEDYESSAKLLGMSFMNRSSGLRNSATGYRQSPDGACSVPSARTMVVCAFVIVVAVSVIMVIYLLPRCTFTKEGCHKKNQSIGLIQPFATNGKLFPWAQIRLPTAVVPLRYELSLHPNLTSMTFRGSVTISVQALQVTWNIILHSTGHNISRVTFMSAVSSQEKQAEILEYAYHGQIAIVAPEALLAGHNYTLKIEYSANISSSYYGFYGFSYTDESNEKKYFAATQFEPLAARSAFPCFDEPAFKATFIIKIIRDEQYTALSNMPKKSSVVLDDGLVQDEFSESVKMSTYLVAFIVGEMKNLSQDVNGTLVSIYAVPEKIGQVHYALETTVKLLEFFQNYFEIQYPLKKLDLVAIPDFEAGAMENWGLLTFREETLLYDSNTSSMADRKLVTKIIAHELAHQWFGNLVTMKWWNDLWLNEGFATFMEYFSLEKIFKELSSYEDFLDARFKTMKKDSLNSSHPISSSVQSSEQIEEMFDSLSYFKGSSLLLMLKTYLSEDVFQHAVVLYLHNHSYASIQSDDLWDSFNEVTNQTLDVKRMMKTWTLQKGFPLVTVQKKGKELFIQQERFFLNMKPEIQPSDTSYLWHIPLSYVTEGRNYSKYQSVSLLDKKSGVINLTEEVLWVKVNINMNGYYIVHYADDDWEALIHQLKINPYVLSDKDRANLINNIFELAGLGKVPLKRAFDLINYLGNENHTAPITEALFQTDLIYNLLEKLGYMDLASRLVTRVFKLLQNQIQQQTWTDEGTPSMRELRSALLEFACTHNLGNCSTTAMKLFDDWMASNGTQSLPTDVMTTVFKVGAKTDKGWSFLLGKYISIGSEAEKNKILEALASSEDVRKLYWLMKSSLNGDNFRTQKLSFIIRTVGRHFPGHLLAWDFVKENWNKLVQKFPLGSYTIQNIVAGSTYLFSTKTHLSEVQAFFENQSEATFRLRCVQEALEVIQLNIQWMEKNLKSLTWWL

`Cc1ccccc1C1=C2C=CC(=N)C=C2[Si](C)(C)c2cc(NC(=O)[C@H](CC(=O)O)NC(=O)[C@@H](NC(=O)[C@H](CCC(=O)O)NC(=O)[C@H](CC(=O)O)NC(=O)OCc3ccccc3)C(C)C)ccc21`: in assay [1], the result was Active. Also, the fold change (FC) on Caspase-3 (Homo sapiens) [2] was 432; on Caspase-3 (Homo sapiens) [3] it was 40.
